Here are results for three compounds from PMC3280214, “Structure Based Discovery of Small Molecules to Regulate the Activity of Human Insulin Degrading Enzyme” (PLoS ONE, 2012).

For one data set, the target named is T1, IDE (Homo sapiens, UniProt P14735).
T1 construct: made in house; host or cells: E. coli BL21
T1 sequence (P14735 1-1019): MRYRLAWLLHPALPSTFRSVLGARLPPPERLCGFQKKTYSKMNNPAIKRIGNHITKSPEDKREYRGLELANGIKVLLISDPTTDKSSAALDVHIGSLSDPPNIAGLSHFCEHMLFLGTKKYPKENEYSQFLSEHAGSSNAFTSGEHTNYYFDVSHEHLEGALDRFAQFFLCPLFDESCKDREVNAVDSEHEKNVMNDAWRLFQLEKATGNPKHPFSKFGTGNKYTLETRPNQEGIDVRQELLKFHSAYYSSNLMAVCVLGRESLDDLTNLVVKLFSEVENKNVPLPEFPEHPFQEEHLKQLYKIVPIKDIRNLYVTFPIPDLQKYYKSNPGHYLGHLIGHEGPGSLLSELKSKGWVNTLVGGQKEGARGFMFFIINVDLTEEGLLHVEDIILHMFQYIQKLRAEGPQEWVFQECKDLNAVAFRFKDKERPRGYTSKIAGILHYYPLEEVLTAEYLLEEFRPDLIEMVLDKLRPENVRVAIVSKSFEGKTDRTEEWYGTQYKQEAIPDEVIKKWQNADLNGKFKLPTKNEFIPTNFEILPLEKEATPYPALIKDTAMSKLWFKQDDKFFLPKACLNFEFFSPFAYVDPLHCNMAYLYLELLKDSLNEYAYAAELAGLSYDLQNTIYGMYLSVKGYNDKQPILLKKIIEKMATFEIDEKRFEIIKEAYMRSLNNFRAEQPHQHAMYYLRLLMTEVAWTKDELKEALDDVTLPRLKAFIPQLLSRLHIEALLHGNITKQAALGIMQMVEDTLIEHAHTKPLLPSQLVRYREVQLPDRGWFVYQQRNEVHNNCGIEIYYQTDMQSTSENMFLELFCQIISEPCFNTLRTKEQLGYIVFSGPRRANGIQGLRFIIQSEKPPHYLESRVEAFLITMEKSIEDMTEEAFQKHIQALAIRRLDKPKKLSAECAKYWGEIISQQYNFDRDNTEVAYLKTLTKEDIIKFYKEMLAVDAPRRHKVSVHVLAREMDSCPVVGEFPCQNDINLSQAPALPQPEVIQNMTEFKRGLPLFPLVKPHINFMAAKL
Kind of data set: FAβB (amyloid-β) degradation assay. The class given is biochemical. The following applies: 20 µM compound. Here is the method: The 10 compounds given in Table 1 were subjected to further characterization and their effect was measured on the proteolytic activity of IDE using different substrates. Initially, activity assays were carried out at fixed 20 µM concentrations for all molecules to identify the effect of those compounds on IDE activity. IDE activity was quantified by monitoring the change in fluorescence for the proteolysis of fluorogenic-substrate V, FITC- insulin-bound antibody, and FAβB by recombinant human IDE purified from E.coli BL21 [6], [18], [19]. […] Also, D6 increased the amyloid-β degradation by 20% (Fig. S1C). Further, D10 enhanced IDE-mediated FITC-insulin-mAb and substrate V degradation by 290% and 65%, respectively (Fig. S1A, B). Next, an EC50 value of each molecule that enhanced IDE activity was determined with a dose response assay, where specific activity of IDE was measured with different concentrations of the lead compounds and then the plot was fit to Sigmoidal Hill-4 parameter equation. […] EC50 value for D3 on insulin degradation was approximately measured as 20 µM (Fig. S2C), whereas EC50 value for D6 on amyloid-β degradation was 2 µM (Fig. S2D). […] Among all these four compounds, D10 seems to be the potent activator of IDE, when proteolysis of insulin is considered.
This assay was performed as follows: 10 µl of 50 nM of FAβB was dissolved in a buffer which consisted of 50 mM HEPES, 100 mM NaCl, % 0,05 (v/v) bovine serum albumin, at a pH of 7.4. The reaction was initiated in a total volume of 100 µl with 20 µM drugs by adding 20 µl of 0.02 mg/ml of IDE for 2.5 h at 37°C. The reaction was stopped by adding 2 µl of 100 mM of protease inhibitor (1, 10-phenanthroline). Uncleaved FAβB was precipitated with Neutravidin- coated agarose beads by gentle rocking for 30 min. and centrifugation for 10 min at 14000 g. The supernatant was transferred to the black 96 well plates and increase in fluorescence (488 excitation, 525 emission) was measured with a multi-label plate reader.
The effect of the lead compounds on the initial rate of proteolysis of IDE was determined by measurement in fluorescence with time both in the presence and absence of the lead compounds. The kinetic data for IDE-mediated insulin, substrate V and amyloid-β degradation were plotted and fitted using SigmaPlot software (Sigmoidal, Hill, 4 parameter). For the initial rate calculations, kinetic data were fitted using SigmaPlot software (Hyperbola; Single Rectangular I, 3 Parameter).

A further data set deals with HeLa cells. Kind of data set: MTT assay for cell viability. The class given is cell-based, human. The following applies: 24 h; for cytotoxicity at high concentrations: 1 to 100 µM. The source says: We characterized the activity of novel compounds in a cellular assay to establish whether there were any cytotoxic effects. We used an established MTT (3-(4,5-dimethylthiazolyl-2)-2, 5-diphenyltetrazolium bromide or thiazolyl blue) method using HELA cells to determine whether the small molecule affects cell viability. In this method, a purple formazan dye forms as a result of the cleavage of the yellow tetrazolium MTT within metabolically active cells. The resulting precipitate of the intracellular formazan can be dissolved in a detergent solution and quantified spectrophotometrically at 595 nm. We measured the cytotoxicity by incubating HELA cells in the presence of novel compounds at concentrations ranging from 1 to 100 µM for 24 h. Cell viability was measured using the MTT method after […] culture. The extent of cell death was expressed relative to a control containing DMSO. […] Therefore, as a next step we tested the effects of lead compounds on insulin catabolism using HeLa cells.
The cytotoxicity assay was performed using human cervical cancer HeLa cells. Cells were cultured at 37°C under a humidified atmosphere of 5% CO2 in medium supplemented with 10% fetal bovine serum and dispersed in replicate 96-well plates with 2.5×10^4 cells/well. Compounds were then added. After 24 hours exposure to the chemical compounds, the cell viability was determined by 3-[4,5-dimethylthiazol-2-yl]-2,5-diphenpyltetrazolium bromide (MTT) assay. The optical density (OD) of the wells was determined using ELISA plate reader at a test wavelength of 600 nm and a reference wavelength of 630 nm. Each measurement was carried out in triplicate.
(Formazan colour is commonly taken as a measure of viable cells.)

For the compound `COc1ccc(C2C(C(=O)Nc3ccccc3)=C(C)N=c3sc(=Cc4cn(C)nc4C)c(=O)n32)cc1` (stereo not shown) [Compound D3], the “effect on proteolysis activity of IDE for amyloid-β” value (shortened to “effect on proteolysis activity”) on IDE is listed as “did not have any effect”. In addition, in the data set with HeLa cells, the “cytotoxicity at high concentrations” value is reported as “did not demonstrate any toxicity”.
Turning to `Nc1c(C(=O)Nc2ccccc2F)c2ccccn2c1C(=O)c1ccc2c(c1)CCCC2` [Compound D4], at IDE, the “effect on proteolysis activity” value is listed as “did not have any effect”. The cell viability entry is given as “approximately 85%” in the data set on HeLa cells (7.5 µM) and 60% with HeLa cells (100 µM).
Consider `Cc1nn(-c2ccccc2)c2nc(-c3cccc([N+](=O)[O-])c3)n3c4ccccc4nc3c2c1=O` [Compound D10], for which the “effect on proteolysis activity” value at IDE was “did not have any effect”. In addition, the “cytotoxicity at high concentrations” value in the data set on HeLa cells is given as “did not demonstrate any toxicity”.

A word on the cell viability: it is a per cent measure of how many cells are alive, often set against a control. Low readings indicate more harm to the cells, high ones less harm to the cells.
